Assays:
mean arterial pressure = test: in vivo blood pressure lowering in low sodium diet, furosemide-treated rats; conditions: oral or parenteral dosing; sodium-depleted Sprague-Dawley rats
Protocol: The ability of the compounds of the invention to lower blood pressure in mammals was determined by the following in vivo protocol. Sprague-Dawley rats are placed on a low sodium diet (Purina Labs, 0.07% sodium) for 15 days. On days 11 and 13 of this period, the rats are given furosemide (Lasix, 8 mg/kg, i.m.). On day 13, the animals are anesthetized with a pentobarbital-chloral hydrate mixture (30 mg/kg pentobarbital sodium and 10 mg/kg chloral hydrate, i.p.) and the carotid artery and jugular vein are cannulated using PE50 tubing (Clay-Adams). After a 24 hour recovery period, the animals are injected on day 14 with Lasix (10 mg/kg, i.m.) and are placed in plexiglass chambers for blood pressure recording. […] When possible, blood pressure is also checked after 24 hours. According to this protocol, the compound of the invention is effective in lowering mean arterial pressure at oral dosages from about 0.1 mg/kg to about 30 mg/kg, and at parenteral dosages from about 0.01 mg/kg to about 10 mg/kg, with a duration of action of greater than 24 hours.

rat liver AII receptors = target: T1, rat liver AII receptors (Rattus norvegicus, UniProt P25095); test: in vitro AII rat liver binding assay (displacement of 125I SARILE AII); conditions: displacement of 125I SARILE AII from rat liver membranes; assay run with or without BSA; read-out: IC50 (concentration of compound which inhibits binding by 50%)
T1 construct: from tissue; host or cells: liver membranes (100,000 g pellet) of male Sprague-Dawley rats
T1 sequence (P25095 1-359): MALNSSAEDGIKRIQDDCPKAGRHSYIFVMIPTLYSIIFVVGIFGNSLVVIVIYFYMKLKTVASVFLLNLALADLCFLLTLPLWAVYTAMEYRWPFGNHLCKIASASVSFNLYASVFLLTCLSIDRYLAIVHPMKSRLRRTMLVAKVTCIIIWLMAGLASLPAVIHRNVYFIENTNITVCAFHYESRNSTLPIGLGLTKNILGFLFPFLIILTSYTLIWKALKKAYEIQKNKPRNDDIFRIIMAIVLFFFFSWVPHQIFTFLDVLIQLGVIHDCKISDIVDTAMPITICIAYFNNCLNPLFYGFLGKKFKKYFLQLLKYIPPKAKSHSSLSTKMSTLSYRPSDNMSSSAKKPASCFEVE
Protocol: The compound of the present invention is readily adapted to clinical use as a modulator of AII action at the AII receptor. The ability of the compound to modulate AII action was determined by an in vitro AII rat liver binding assay which measures its ability to displace ^125 I sarcosine-1, isoleucine-8, angiotensin II (SARILE AII, obtained from New England Nuclear) from rat liver AII receptors. For this assay, the following materials are used.
Homogenation buffer (10 mM Tris, 0.2M sucrose, 1.0 mM EDTA), prepared using 1.21 g Tris base, […] sucrose and 336 mg EDTA in 1000 ml water, adjusted to pH 7.4 using HCl.
Buffer A (50 mM Tris, 5 mM MgCl2), prepared using 6.05 g Tris base and 1.02 g MgCl2.6H2 O in 1000 ml water.
Assay buffer, prepared using 200 ml Buffer A and 0.5 g BSA. […]
The compound being tested is made up to an initial concentration of 2 mM in 100% DMSO. […] The filters are cut, placed in test tubes and counted on a Gamma Counter. The mean for all triplicate points are calculated and total specific binding is calculated by subtracting nonspecific counts from total counts. Binding in the presence of compound (COUNTS) is calculated by subtracting nonspecific counts from counts in the presence of compound. Percent binding of SARILE All in the presence of compound is calculated by dividing COUNTS by total specific counts. […]

IC50 (rat liver AII receptors): < 100 nM
SMILES: CCc1nc2c(C)cc(C)nc2n1Cc1ccc(C2(C(=O)O)CC=CC2)cc1 [Example 1, 1-[4'-(2"-ethyl-5",7"-dimethylimidazo[4,5-b]pyridin-3-yl)methylphenyl]cyclopent-3-ene-1-carboxylic acid]
duration of action (lowering of mean arterial pressure) (mean arterial pressure): greater than 24 hours

Reference: patent US5300668A, “Certain esters of 1-(4-X-methylphenyl)cyclopent-3-ene-1-carboxylic acid, wherein X is a trialkylsilyloxy, bromo or hydroxy group, as intermediates” (Pfizer Inc., priority 1993, dated 1994)
